# Patent US20250248922A1, “METHOD OF PREPARING A MASTOCARPUS STELLATUS EXTRACT” (GIVAUDAN SA, priority 2022, published 2025)
# Tested on: human mature adipocytes
# Experiment: Lipolytic activity: glycerol release by 3D culture of human mature adipocytes
# Assay type: cell-based
# Settings: 72 h of treatment, extract 0.5%
# Description: Mature adipocytes were isolated from subcutaneous adipose tissue after digestion by collagenase. The isolated adipocytes were washed with a wash buffer and encapsulated in a peptidic hydrogel to form 3D adipocytes capsules of 25 μl in size. The formation of adipocytes capsules followed an internal standardized protocol to have about the same number of adipocytes between the capsules. Cells were then incubated for 24 h at 37° C. for stabilization. Treatments with Mastocarpus stellatus extract at 0.5% were initiated at D0 with a medium change; and the culture media were changed every day until 4 days of culture. At each culture media change, the cells secretions were collected, centrifuged and frozen at-80° C. for further analysis. Each culture condition was done in triplicate. The culture media after 72 h of treatment were collected. The concentrations of adiponectin and glycerol were evaluated by ELISA and colorimetric assays, respectively, using specific kits according to the manufacture's recommendations (adiponectin kit, Duoset, DY1065, R&D Systems; Glycerol kit, Randox, GY105).
smiles,measurement,setting,value
CC(C)NCC(O)c1ccc(O)c(O)c1 (centres unmarked) [Isoproterenol],"Glycerol release (% of untreated), average",isoproterenol 1 μM (positive control),295.6 % of untreated
same,increase of glycerol release,"isoproterenol 1 μM, vs untreated",+196%
